{
  "source": "patent US20110070232A1",
  "about": "“Combination Therapy with an Antitumor Alkaloid” (Pharma Mar, S.A., priority 2008, published 2011)",
  "key": {"Hs746T tumors": {"test_system": "Hs746T tumors", "format": "in vivo, mice", "conditions": "for % Inhibition: PM00104 0.9 and doxorubicin 6 mg/kg/day", "description": "Female athymic nude mice (Harlan Sprague Dawley, Madison, Wis.) were utilized for all experiments. Animals were housed in ventilated rack caging with food and water ad libitum. The mice were acclimated for at least 5 days prior to tumor implantation with a tumor cell suspension.\nThe tumor model used in these studies was Hs746T cell line, which was obtained from the ATCC (Manassas, Va.).\nTreatments were initiated on DPI 15.\n5-FU was provided as a solution which was further diluted with water for injection.\n(§1) Tumor size measurements were recorded twice weekly from the treatment initiation until the termination of the study.\n(§2) Mean, standard deviation and standard error of the mean were determined for tumor volume for all animal groups at all assessments. Student's t test was performed on tumor volumes at each measurement day, including at the end of the study, to determine whether there were any statistically significant differences between combination treatment groups and single monotherapy treatment groups."}, "MRI-H-254 tumors": {"test_system": "MRI-H-254 tumors", "format": "in vivo, mice", "procedure": "Female athymic nude mice (Harlan Sprague Dawley, Madison, Wis.) were utilized for all experiments. Animals were housed in ventilated rack caging with food and water ad libitum. The mice were acclimated for at least 5 days prior to tumor implantation with tumor fragments. The Vehicle Control group contained 11 mice, groups 2-6 contained 8 mice/group, and the rest of groups contained 9 mice/group.\nThis cell line was grown and implanted to the animals as described in Example 11.\nTumor measurements were determined as disclosed in Example 4. […] Treatments were initiated on DPI 17.\nPM00104 was provided in the form of vials of lyophilized PM00104 powder which was reconstituted with water for injection.\nas §1, §2\nThe definition and criteria for the evaluation of potentiation and the degree of additivity for the combination therapy were the same as those disclose in Example 4."}, "[1]": {"test_system": "HGC-27 human gastric carcinoma cell line", "experiment": "IC50 determination, MTS assay, 72 h (Example 1)", "format": "cell-based", "conditions": "Homo sapiens, 72 hours of drug exposure, read-out: IC50", "procedure": "(§3) The human gastric carcinoma cell lines selected for this assay were the following: Hs746T, HGC-27, and AGS cell lines. Hs746T and AGS cell lines were grown in Dulbecco's modified Eagle's medium (DMEM) supplemented with 10% Fetal Bovine Serum (FBS), 1.5 g/L sodium bicarbonate, 4.5 g/L glucose and 4 mM L-glutamine. HGC-27 cell line was grown in Iscove's modified Dulbecco's medium (IMDM) supplemented with 20% FBS and 2 mM L-glutamine.\n(§4) The day before plating, the cells were fed with fresh, complete growth media. On the harvest (plating) day, cells were counted by Trypan Blue exclusion staining method.\n(§5) Cells were harvested and seeded in 96 well microtiter plates at 10,000 cells density in 150 μL of media and incubated for 24 hours to allow the cells to attach before drug addition. To collect reference data, the MTS assay was done on untreated cells at time 0 (after incubation of cells for 24 hours).\n(§6) The cytotoxic effect was measured by the MTS Assay (Tetrazolium), which is a colorimetric method for determining the number of viable cells. After the incubation period (24 hours for the Day 0 plate and 72 hours for the Test and Control plates), 25 μL of MTS+PMS solution was added to each microtiter well and incubated for 4 hours at 37° C. Plates were then removed from incubator and placed on plate shaker for 5 minutes (covered with aluminum foil for protection from light). Optical densities were read at 490 nm on spectrophotometer plate reader.\n(§7) IC50 values were calculated from an average of two to four assays for each of the test agents."}, "[2]": {"test_system": "AGS human gastric carcinoma cell line", "experiment": "IC50 determination, MTS assay, 72 h (Example 1)", "format": "cell-based", "conditions": "Homo sapiens, 72 hours of drug exposure, read-out: IC50", "procedure": "as §3, §4, §5, §6, §7"}, "[3]": {"test_system": "Hs746T human gastric carcinoma cell line", "experiment": "IC50 determination, MTS assay, 72 h (Example 1)", "format": "cell-based", "conditions": "Homo sapiens, 72 hours of drug exposure, read-out: IC50", "procedure": "as §3, §4, §5, §6, §7"}, "[4]": {"test_system": "MDA-MB-231 (breast cancer) cell line", "experiment": "IC50 determination, MIT (tetrazolium) assay, 72 h (Example 18)", "format": "cell-based", "conditions": "Homo sapiens; MDA-MB-231, 72 hours of drug exposure", "procedure": "(§8) Before plating, cell cultures were trypsinized and cell number estimated using an automated flow cytometer.\n(§9) Cells were harvested and seeded in 96 well microtiter plates at the appropriate cell density (5,000-10,000 cells) in 150 μL of media and incubated for 24 hours to allow the cells to attach before drug addition.\n(§10) After the incubation period (72 hours), 50 μL of MIT solution was added to each microtiter well and incubated for further 8 hours at 37° C. The culture medium was then removed and 50 μl, of DMSO were added to dissolve the MIT crystals. Optical densities were read at 540 nm on spectrophotometer microplate reader.\nas §7"}, "[5]": {"test_system": "MCF-7 (breast cancer) cell line", "experiment": "IC50 determination, MIT (tetrazolium) assay, 72 h (Example 18)", "format": "cell-based", "conditions": "Homo sapiens, MCF7; MCF-7, 72 hours of drug exposure", "procedure": "as §8, §9, §10, §7"}, "[6]": {"conditions": "PM00104 0.9, 5-FU 50 (DPI 15) then 100 (DPI 22 & 29), irinotecan 20, doxorubicin 6 mg/kg/day"}, "[7]": {"conditions": "PM00104 0.90 IV, doxorubicin 6 IP, paclitaxel 12.5 IP mg/kg/day (G2, G5, G6, G7, G8)"}},
  "note": "Like-named read-outs stand apart in the source and are kept apart here.",
  "data": [
    {"smiles": "COc1cccc2c1C(=O)c1c(O)c3c(c(O)c1C2=O)C[C@@](O)(C(=O)CO)C[C@@H]3O[C@H]1C[C@H](N)[C@H](O)[C@H](C)O1", "note": "[Doxorubicin, doxorubicin]", "values": [
      {"measurement": "% T/C on day 15", "setting": "Hs746T tumors; [6]", "value": 104.2, "unit": "%"},
      {"measurement": "% T/C on day 19", "setting": "Hs746T tumors; [6]", "value": 79.8, "unit": "%"},
      {"measurement": "% T/C on day 26", "setting": "Hs746T tumors; [6]", "value": 48.9, "unit": "%"},
      {"measurement": "% T/C on day 29", "setting": "Hs746T tumors; [6]", "value": 40.2, "unit": "%"},
      {"measurement": "% T/C on day 33", "setting": "Hs746T tumors; [6]", "value": 51.4, "unit": "%"},
      {"measurement": "% Inhibition", "setting": "Hs746T tumors; day 15", "value": "−4.2", "unit": "%"},
      {"measurement": "% Inhibition", "setting": "Hs746T tumors; day 19", "value": 20.2, "unit": "%"},
      {"measurement": "% Inhibition", "setting": "Hs746T tumors; day 22", "value": 52.6, "unit": "%"},
      {"measurement": "% Inhibition", "setting": "Hs746T tumors; day 26", "value": 51.1, "unit": "%"},
      {"measurement": "% Inhibition", "setting": "Hs746T tumors; day 29", "value": 59.8, "unit": "%"},
      {"measurement": "% Inhibition", "setting": "Hs746T tumors; day 33", "value": 48.6, "unit": "%"},
      {"measurement": "% T/C on day 17", "setting": "MRI-H-254 tumors; [7]", "value": 98.2, "unit": "%"},
      {"measurement": "% T/C on day 20", "setting": "MRI-H-254 tumors; [7]", "value": 93.5, "unit": "%"},
      {"measurement": "% T/C on day 24", "setting": "MRI-H-254 tumors; [7]", "value": 76.2, "unit": "%"},
      {"measurement": "% T/C on day 27", "setting": "MRI-H-254 tumors; [7]", "value": 64.4, "unit": "%"},
      {"measurement": "% T/C on day 32", "setting": "MRI-H-254 tumors; [7]", "value": 56.3, "unit": "%"},
      {"measurement": "% T/C on day 35", "setting": "MRI-H-254 tumors; [7]", "value": 24.8, "unit": "%"},
      {"measurement": "% T/C on day 39", "setting": "MRI-H-254 tumors; [7]", "value": 19.7, "unit": "%"},
      {"measurement": "% T/C on day 47", "setting": "MRI-H-254 tumors; [7]", "value": 15.7, "unit": "%"},
      {"measurement": "% Inhibition", "setting": "MRI-H-254 tumors; day 14, PM00104 0.23, doxorubicin 6, paclitaxel 12.5 mg/kg/day", "value": 1.8, "unit": "%"},
      {"measurement": "% Inhibition", "setting": "MRI-H-254 tumors; day 14, PM00104 0.45, doxorubicin 6, paclitaxel 12.5 mg/kg/day", "value": 1.8, "unit": "%"},
      {"measurement": "% Inhibition", "setting": "MRI-H-254 tumors; day 14, PM00104 0.9 and doxorubicin 6 mg/kg/day", "value": 1.8, "unit": "%"},
      {"measurement": "% Inhibition", "setting": "MRI-H-254 tumors; day 20, PM00104 0.23, doxorubicin 6, paclitaxel 12.5 mg/kg/day", "value": 6.5, "unit": "%"},
      {"measurement": "% Inhibition", "setting": "MRI-H-254 tumors; day 20, PM00104 0.45, doxorubicin 6, paclitaxel 12.5 mg/kg/day", "value": 6.5, "unit": "%"},
      {"measurement": "% Inhibition", "setting": "MRI-H-254 tumors; day 20, PM00104 0.9 and doxorubicin 6 mg/kg/day", "value": 6.5, "unit": "%"},
      {"measurement": "% Inhibition", "setting": "MRI-H-254 tumors; day 24, PM00104 0.23, doxorubicin 6, paclitaxel 12.5 mg/kg/day", "value": 23.8, "unit": "%"},
      {"measurement": "% Inhibition", "setting": "MRI-H-254 tumors; day 24, PM00104 0.45, doxorubicin 6, paclitaxel 12.5 mg/kg/day", "value": 23.8, "unit": "%"},
      {"measurement": "% Inhibition", "setting": "MRI-H-254 tumors; day 24, PM00104 0.9 and doxorubicin 6 mg/kg/day", "value": 23.8, "unit": "%"},
      {"measurement": "% Inhibition", "setting": "MRI-H-254 tumors; day 27, PM00104 0.23, doxorubicin 6, paclitaxel 12.5 mg/kg/day", "value": 35.6, "unit": "%"},
      {"measurement": "% Inhibition", "setting": "MRI-H-254 tumors; day 27, PM00104 0.45, doxorubicin 6, paclitaxel 12.5 mg/kg/day", "value": 35.6, "unit": "%"},
      {"measurement": "% Inhibition", "setting": "MRI-H-254 tumors; day 27, PM00104 0.9 and doxorubicin 6 mg/kg/day", "value": 35.6, "unit": "%"},
      {"measurement": "% Inhibition", "setting": "MRI-H-254 tumors; day 32, PM00104 0.23, doxorubicin 6, paclitaxel 12.5 mg/kg/day", "value": 43.7, "unit": "%"},
      {"measurement": "% Inhibition", "setting": "MRI-H-254 tumors; day 32, PM00104 0.45, doxorubicin 6, paclitaxel 12.5 mg/kg/day", "value": 43.7, "unit": "%"},
      {"measurement": "% Inhibition", "setting": "MRI-H-254 tumors; day 32, PM00104 0.9 and doxorubicin 6 mg/kg/day", "value": 43.7, "unit": "%"},
      {"measurement": "% Inhibition", "setting": "MRI-H-254 tumors; day 35, PM00104 0.23, doxorubicin 6, paclitaxel 12.5 mg/kg/day", "value": 75.2, "unit": "%"},
      {"measurement": "% Inhibition", "setting": "MRI-H-254 tumors; day 35, PM00104 0.45, doxorubicin 6, paclitaxel 12.5 mg/kg/day", "value": 75.2, "unit": "%"},
      {"measurement": "% Inhibition", "setting": "MRI-H-254 tumors; day 35, PM00104 0.9 and doxorubicin 6 mg/kg/day", "value": 75.2, "unit": "%"},
      {"measurement": "% Inhibition", "setting": "MRI-H-254 tumors; day 39, PM00104 0.23, doxorubicin 6, paclitaxel 12.5 mg/kg/day", "value": 80.3, "unit": "%"},
      {"measurement": "% Inhibition", "setting": "MRI-H-254 tumors; day 39, PM00104 0.45, doxorubicin 6, paclitaxel 12.5 mg/kg/day", "value": 80.3, "unit": "%"},
      {"measurement": "% Inhibition", "setting": "MRI-H-254 tumors; day 39, PM00104 0.9 and doxorubicin 6 mg/kg/day", "value": 80.3, "unit": "%"},
      {"measurement": "% Inhibition", "setting": "MRI-H-254 tumors; day 47, PM00104 0.23, doxorubicin 6, paclitaxel 12.5 mg/kg/day", "value": 84.3, "unit": "%"},
      {"measurement": "% Inhibition", "setting": "MRI-H-254 tumors; day 47, PM00104 0.9 and doxorubicin 6 mg/kg/day", "value": 84.3, "unit": "%"},
      {"measurement": "IC50", "setting": "[1]", "value": 0.177, "unit": "µg/mL"},
      {"measurement": "IC50", "setting": "[2]", "value": 0.156, "unit": "µg/mL"},
      {"measurement": "IC50", "setting": "[3]", "value": 8.97, "unit": "µg/mL"},
      {"measurement": "IC50", "setting": "[4]", "value": 1.9, "unit": "µM"},
      {"measurement": "IC50", "setting": "[5]", "value": 4, "unit": "µM"}
    ]}
  ]
}
